What all share (format): functional
Experiment [1] relates to Pseudomonas aeruginosa. The experiment can be described thus: Antimicrobial activity against Pseudomonas aeruginosa PAO1.
Experiment [2] relates to Pseudomonas aeruginosa. In words: Antimicrobial activity against Pseudomonas aeruginosa PAO1 infected in in vitro pharmacodynamic model assessed as bacterial killing up to 64 mg/L after 48 hrs using 10^7 CFU/ml inoculum by time kill study.
In experiment [3] the test system is Pseudomonas aeruginosa. The experiment can be described thus: Antimicrobial activity against Pseudomonas aeruginosa PAO1 infected in in vitro pharmacodynamic model assessed as bacterial killing at 4 mg/L after 24 hrs using 10^6 CFU/ml inoculum by time kill study.
In experiment [4] the test system is Pseudomonas aeruginosa. In words: Antimicrobial activity against Pseudomonas aeruginosa PAO1 infected in in vitro pharmacodynamic model assessed as bacterial killing at 4 mg/L after 8 hrs using 10^6 CFU/ml inoculum by time kill study.
Experiment [5] has as its system Pseudomonas aeruginosa. The experiment can be described thus: Antimicrobial activity against Pseudomonas aeruginosa PAO1 infected in in vitro pharmacodynamic model assessed as bacterial killing at 0 to 128 mg/L using 10^8 CFU/ml inoculum by time kill study.

In brackets after ≈: the same amount, converted by molar mass.

As to `CC(C)(O/N=C(\C(=O)N[C@@H]1C(=O)N2C(C(=O)[O-])=C(C[n+]3ccccc3)CS[C@H]12)c1csc(N)n1)C(=O)O` [CEFTAZIDIME], 2 µg/mL (≈ 3.66 µM) was the least that counted as inhibitory in the experiment with Pseudomonas aeruginosa [1] (MIC). Also, the log10cfu is listed as 1.6 in the experiment on Pseudomonas aeruginosa [2], 3 in the experiment with Pseudomonas aeruginosa [3], 3 with Pseudomonas aeruginosa [4] and less than 0.3 with Pseudomonas aeruginosa [5].
